Test results: patent US20250100995A1, “CEREBLON BINDING COMPOUNDS, COMPOSITIONS THEREOF, AND METHODS OF TREATMENT THEREWITH” (CELGENE CORPORATION, priority 2021, published 2025)

Molecular target: T1, AR (Homo sapiens, UniProt P10275)
T1 construct: endogenous in cells; host or cells: VCaP cells
T1 sequence (P10275 1-920): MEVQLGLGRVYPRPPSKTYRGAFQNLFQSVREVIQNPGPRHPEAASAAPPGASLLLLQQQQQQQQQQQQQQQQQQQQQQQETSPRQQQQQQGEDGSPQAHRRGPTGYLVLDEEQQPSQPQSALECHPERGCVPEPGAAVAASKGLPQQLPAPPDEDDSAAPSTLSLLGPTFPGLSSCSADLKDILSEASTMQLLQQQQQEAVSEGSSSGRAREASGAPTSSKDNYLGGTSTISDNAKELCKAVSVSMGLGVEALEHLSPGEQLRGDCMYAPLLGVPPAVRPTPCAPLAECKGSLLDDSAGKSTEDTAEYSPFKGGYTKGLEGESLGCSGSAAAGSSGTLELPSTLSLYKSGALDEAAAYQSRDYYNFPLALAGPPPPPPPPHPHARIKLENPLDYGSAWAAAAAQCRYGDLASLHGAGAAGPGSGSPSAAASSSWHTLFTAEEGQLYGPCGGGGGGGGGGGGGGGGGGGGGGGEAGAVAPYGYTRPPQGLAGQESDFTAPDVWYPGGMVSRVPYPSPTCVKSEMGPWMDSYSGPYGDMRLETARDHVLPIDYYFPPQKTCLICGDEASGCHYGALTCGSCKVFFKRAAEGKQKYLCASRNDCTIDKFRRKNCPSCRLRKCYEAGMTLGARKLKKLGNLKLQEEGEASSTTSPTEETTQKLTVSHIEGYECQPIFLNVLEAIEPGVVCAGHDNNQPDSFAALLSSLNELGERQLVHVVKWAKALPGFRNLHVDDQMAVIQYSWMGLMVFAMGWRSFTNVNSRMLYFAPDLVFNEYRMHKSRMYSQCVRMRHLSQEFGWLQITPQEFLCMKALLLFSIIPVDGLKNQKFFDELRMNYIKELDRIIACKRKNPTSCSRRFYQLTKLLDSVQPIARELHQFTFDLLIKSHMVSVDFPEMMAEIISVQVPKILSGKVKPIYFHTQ
Test: VCAP AR Degradation Assay
Format: cell-based
Details: VCaP cells, 24 h, AR ELISA; for DC50: concentration of compound when AR level = 50% of DMSO control; for Y: lowest measured AR level normalized to DMSO control (AR degradation efficiency)
Procedure: VCAP AR Degradation Assay. Test compounds were pre-dispensed into a Corning CellBind 96-well clear bottom plate (Cat #3300) using an acoustic dispenser to make a 10-point concentration series at 1:3 dilution for each compound. The final top concentration of each compound was 5 μM. DMSO at a final concentration of 0.1% was used as a control. VCaP cells cultured in DMEM with 8% fetal bovine serum (FBS) were seeded at 50K cells per well in a 200 μL volume into the compound plate and incubated at 37° C. in a CO2 incubator for 24 h. The medium was carefully removed from the cells and the plate was placed on ice. One hundred μL of ice-cold 1× cell lysis buffer from Cell Signaling Technologies (Cat #9803) was added to each well of the cells and the plate was incubated at 4° C. on a shaker for 1 h. Fifteen μL of cell lysate was used for AR ELISA detection using a PathScan Total Sandwich AR ELISA kit (Cell Signaling Technology, Cat #12580). AR levels in compound-treated wells were normalized to that of DMSO control and expressed as percent of control (PoC) (y). A Four Parameter Logistic Model (Sigmoidal Dose-Response Model) was used to determine the compound's DC50, and EC50, using the following equation: […]
The lowest measured AR level normalized to DMSO control in response to compound treatment, termed Y value, was used to characterize the compound-mediated AR degradation efficiency.

| Structure (SMILES) | DC50 [nM] | Y |
| --- | --- | --- |
| C[C@@H]1C[C@H](OCCC[C@H]2CC[C@H](N3C(=S)N(c4ccc(C#N)c(C(F)(F)F)c4)C(=O)C3(C)C)CC2)C[C@H](C)N1CC(=O)Nc1cc(C2CCC(=O)NC2=O)ccn1 (stereo partly drawn) [Cmpd 28, 2-((2R,4r,6S)-4-(3-((trans)-4-(3-(4-Cyano-3-(trifluoromethyl)phenyl)-5,5-dimethyl-4-oxo-2-thioxoimidazolidin-1-yl)cyclohexyl)propoxy)-2,6-dimethylpiperidin-1-yl)-N-(4-(2,6-dioxopiperidin-3-yl)pyridin-2-yl)acetamide] | 5 to 50 | ** (20%<Y≤40%) |
| C[C@@H]1C[C@H](OCCO[C@H]2CC[C@H](N3C(=S)N(c4ccc(C#N)c(C(F)(F)F)c4)C(=O)C3(C)C)CC2)C[C@H](C)N1CC(=O)Nc1cc(C2CCC(=O)NC2=O)ccn1 (stereo partly drawn) [Cmpd 29, 2-((2R,4r,6S)-4-(2-(((trans)-4-(3-(4-Cyano-3-(trifluoromethyl)phenyl)-5,5-dimethyl-4-oxo-2-thioxoimidazolidin-1-yl)cyclohexyl)oxy)ethoxy)-2,6-dimethylpiperidin-1-yl)-N-(4-(2,6-dioxopiperidin-3-yl)pyridin-2-yl)acetamide] | 5 to 50 | ** (20%<Y≤40%) |
| C[C@@H]1C[C@H](OCC[C@H]2CC[C@H](N3C(=S)N(c4cnc(C#N)c(C(F)(F)F)c4)C(=O)C3(C)C)CC2)C[C@H](C)N1CC(=O)Nc1cc(C2CCC(=O)NC2=O)ccn1 (stereo partly drawn) [Cmpd 30, 2-((2R,4r,6S)-4-(2-((trans)-4-(3-(6-Cyano-5-(trifluoromethyl)pyridin-3-yl)-5,5-dimethyl-4-oxo-2-thioxoimidazolidin-1-yl)cyclohexyl)ethoxy)-2,6-dimethylpiperidin-1-yl)-N-(4-(2,6-dioxopiperidin-3-yl)pyridin-2-yl)acetamide] | 5 to 50 | * (0<Y≤20%) |
